# Measured values: US8084209B2, “HMGCR isoforms in prediction of efficacy and identification of cholesterol-modulating compounds” (Children's Hospital & Research Center Oakland, priority 2005, dated 2011)
# Legend:
# [1] = CAP trial: plasma lipid, lipoprotein and apoprotein response to 40 mg/day simvastatin; format: in vivo, human; parameters: LDL-Cholesterol, Absolute Difference / HDL-Cholesterol, Absolute Difference / ApoA1, Absolute Difference / ApoB, Absolute Difference / IDL-Cholesterol, Absolute Difference: unit not given here; Total Cholesterol, Absolute Difference: unit: mg/dL; conditions: for ApoA1, Absolute Difference / ApoB, Absolute Difference / HDL-Cholesterol, Absolute Difference / IDL-Cholesterol, Absolute Difference / LDL-Cholesterol, Absolute Difference / Total Cholesterol, Absolute Difference: 40 mg/day simvastatin in vivo
# Method: Patients and cell lines. The Cholesterol/Atherosclerosis Pharmacogenetics (CAP) trial was a non-randomized, non-blinded study of 944 African-American and Caucasian men and women age 30 or older with baseline total cholesterol of 160 to 400 mg/dL.
# A subset of 66 African American patients from the CAP trial was chosen for testing of the HMGCR gene expression assay (Examples 1, 2, 3, 4 and 5). An African American was defined as an individual who had three or more grandparents who self-identified as African American. A Caucasian was defined as an individual who had three or more grandparents who self-identified as Caucasian American. The table below provides a summary of the demographics for this population.
# The table below provides a summary of the population demographics.
# A dose study was performed with a second subset of 60 African American patients (Examples 1, 3, 4, and 5). […] The population demographics for this group is shown below.
# [2] = tested on: total HMGCR (6-7) transcript; experiment: HMGCR gene expression by real time PCR in immortalized lymphocyte cell lines, exons 6 to 7 assay; format: cell-based, human; conditions: 24 hours
# Method: Cell lines were grown at 37° C., 5% CO2 in RPMI Medium 1640 (Invitrogen) supplemented with 10% fetal bovine serum (Hyclone), 500 units/ml Penicillin/Streptomycin (Invitrogen) and 2 nM GlutaMAX (Invitrogen). […] Media was changed 24 hours prior to exposure to ensure the cultures were in an active growth phase. After exposure, cells were pelleted, resuspended in Trizol (Invitrogen), and stored at −80° C. until RNA extraction.
# RNA isolation and cDNA synthesis. RNA was isolated from the cell/Trizol slurries following the manufacturer's protocol (Invitrogen). RNA quality was assessed by gel electrophoresis and A260/A280 measured via spectrophotometry. […]
# Real time PCR standards were generated by amplifying 100 ng lymphocyte cDNA with 1×PCR buffer, 1.5 mM MgCl2, 0.5 mM dNTPs, 1 mM of each primer, and 0.125 units Taq DNA polymerase (Invitrogen). […] Eight PCR reactions for each standard was generated, pooled, and quantitated via gel electrophoresis using a DNA low mass ladder (Invitrogen). […] PCR standards were run in triplicate on each plate to serve as a positive control for the assay and to quantitate levels of gene expression.
# SLC7A5 and CLPTM1 were quantitated in all samples by TaqMan assays purchased from Applied Biosystems (part numbers Hs0018526_m1 and Hs00171300_m1). […]
# HMGCR(12-13) and spliced HMGCR(12-14) mRNA was quantified via real time PCR as described above.
# [3] = Study Population A, African Americans, N 66
# [4] = Study Population B, Caucasian Americans, N 43
# [5] = Study Population C, African Americans, N 60
# [6] = on statin therapy, data in Examples 1-5
smiles,measurement,setting,value
CCC(C)(C)C(=O)O[C@H]1C[C@@H](C)C=C2C=C[C@H](C)[C@H](CC[C@@H]3C[C@@H](O)CC(=O)O3)[C@H]21 [simvastatin],mean HDL-cholesterol increase,"[1]; African Americans, on statin therapy",0.96 mg/dL
same,mean HDL-cholesterol increase,"[1]; Caucasian Americans, on statin therapy",2.17 mg/dL
same,"ApoA1, Absolute Difference",[1]; [3],−1.69 ± 1.76
same,"ApoB, Absolute Difference",[1]; [3],−27.11 ± 1.71
same,"HDL-Cholesterol, Absolute Difference",[1]; [3],0.96 ± 0.75
same,"IDL-Cholesterol, Absolute Difference",[1]; [3],−9.06 ± 0.75
same,"LDL-Cholesterol, Absolute Difference",[1]; [3],−51.17 ± 2.37
same,"Total Cholesterol, Absolute Difference",[1]; [3],−54.48 ± 2.79
same,"ApoA1, Absolute Difference",[1]; [4],−2.114 ± 2.271
same,"ApoB, Absolute Difference",[1]; [4],−33.091 ± 2.700
same,"HDL-Cholesterol, Absolute Difference",[1]; [4],2.155 ± 0.904
same,"IDL-Cholesterol, Absolute Difference",[1]; [4],−10.373 ± 1.066
same,"LDL-Cholesterol, Absolute Difference",[1]; [4],−63.909 ± 3.455
same,"Total Cholesterol, Absolute Difference",[1]; [4],−65.614 ± 3.791
same,"ApoA1, Absolute Difference",[1]; [5],2.80 ± 1.79
same,"ApoB, Absolute Difference",[1]; [5],−28.03 ± 1.88
same,"HDL-Cholesterol, Absolute Difference",[1]; [5],1.98 ± 0.55
same,"IDL-Cholesterol, Absolute Difference",[1]; [5],−10.23 ± 0.80
same,"LDL-Cholesterol, Absolute Difference",[1]; [5],−55.74 ± 3.36
same,"Total Cholesterol, Absolute Difference",[1]; [5],−57.73 ± 3.62
same,mean IDL cholesterol reduction (printed: mean total cholesterol reduction),[1]; [6],-9.85 mg/dL
same,mean LDL-cholesterol reduction,[1]; [6],-56.0 mg/dL
same,mean total cholesterol reduction,[1]; [6],-58.5 mg/dL
same,up-regulation of HMGCR(6-7),"[2]; African American cell lines, 14.5 μM simvastatin",1.65±0.48 fold
same,"total HMGCR (6-7) gene up-regulation, average fold change","[2]; cell lines derived from African Americans, 1.8 μM activated simvastatin",1.44 fold
